Tested on: subjects with moderately to severely active RA who have an inadequate response to methotrexate (MTX)
Experiment: Study 1 (add-on to MTX) - Subject VAS mean changes (ACR patient assessment)
Assay type: in vivo, human
Description: The scale is 100 mm, the decrease in mm is shown. […] (dotted line), 100 mg q.d. (dashed line) or 200 mg q.d. (dark solid line). […] The results shown in the figures are calculated using Last-Observation-Carried-Forward (LOCF), which handles missing data by assigning the value recorded at the patient's last visit to all subsequent missed visits.
Double-blind, placebo-controlled add on study in subjects with moderately to severely active RA who have an inadequate response to methotrexate (MTX) (oral or parenteral).
595 subjects randomized to one of 6 dose regimens of Compound 1 (dosed as [Compound 1:HCl:3H2O]) (3 dose levels administered either once or twice daily) or placebo on top of each subject's stable dose of MTX.
Compound 1 (dosed as [Compound 1:HCl:3H2O]) is dosed for twelve weeks once daily (q.d.) (50 mg, 100 mg or 200 mg) or twice daily (b.i.d.) (25 mg, 50 mg or 100 mg); or placebo.
At Week 12, the subjects on placebo who have not achieved 20% improvement in swollen joint count (SJC66) and tender joint count (TJC68) are re-randomized automatically to receive Compound 1 (dosed as a [Compound 1:HCl:3H2O]) either at 100 mg q.d. or 50 mg b.i.d. doses in a blinded fashion; subjects on 50 mg q.d. who have not achieved 20% improvement in SJC66 and TJC68 will be assigned to 100 mg q.d. and subjects on 25 mg b.i.d. that have not achieved a 20% improvement in SJC66 and TJC68 will be assigned to 50 mg b.i.d. Subjects who switch treatment at week 12 are handled as if they discontinued at week 12 for the purpose of statistical analysis, whereas subjects in the other groups will maintain their randomized treatment until Week 24.
Firstly, the patient is asked to make a vertical mark on a 100 mm Visual Analog Scale (VAS) corresponding to their general health or global disease activity on a touch screen to measure the VAS value, which is used in the formula below.
The American College of Rheumatology (ACR) composite score, which evaluates clinical improvement relative to an initial assessment, is a commonly accepted efficacy end point for clinical trials in patients with rheumatoid arthritis. The ACR score correspond to a percentage improvement in pre-set parameters, and therefore measures the evolution of the disease in a patient. For example, ACR20 denotes at least 20% improvement in tender and swollen joint counts and in three of the following end points: global assessment by the patient, global assessment by the doctor, C reactive protein (CRP), patient's pain Visual Analogue Scale and Health Assessment Questionnaire Score. The number of swollen joints, ESR and CRP correlate with radiographic progression of joint damage, whereas tender joint counts, as well as global assessments by doctors and patients, and patients' reports of pain, are sensitive to change in clinical outcomes. Physical function, as assessed by the Health Assessment Questionnaire Score, is a potent predictor of the risk of disability in rheumatoid arthritis (Felson and American College of Rheumatology Committee to Reevaluate Improvement Criteria, 2007; Felson et al., 1993).

O=C(Nc1nc2cccc(-c3ccc(CN4CCS(=O)(=O)CC4)cc3)n2n1)C1CC1 [Compound 1, cyclopropanecarboxylic acid {5-[4-(1,1-dioxo-thiomorpholin-4-ylmethyl)-phenyl]-[1,2,4]triazolo[1,5-a]pyridin-2-yl}-amide]
Subject VAS mean changes (ACR patient assessment) (50 mg q.d., week 0, LOCF, 24 weeks results): 0.0 | Subject VAS mean changes (ACR patient assessment) (50 mg q.d., week 2, LOCF, 24 weeks results): −15.5 | Subject VAS mean changes (ACR patient assessment) (50 mg q.d., week 4, LOCF, 24 weeks results): −20.9 | Subject VAS mean changes (ACR patient assessment) (50 mg q.d., week 8, LOCF, 24 weeks results): −26.4 | Subject VAS mean changes (ACR patient assessment) (50 mg q.d., week 12, LOCF, 24 weeks results): −25.2 | Subject VAS mean changes (ACR patient assessment) (50 mg q.d., week 16, LOCF, 24 weeks results): −27.7 | Subject VAS mean changes (ACR patient assessment) (50 mg q.d., week 20, LOCF, 24 weeks results): −28.1 | Subject VAS mean changes (ACR patient assessment) (50 mg q.d., week 24, LOCF, 24 weeks results): −29.4 | Subject VAS mean changes (ACR patient assessment) (50 mg q.d., week 0, LOCF, 12 weeks results): 0.0 | Subject VAS mean changes (ACR patient assessment) (50 mg q.d., week 1, LOCF, 12 weeks results): −11.2 | Subject VAS mean changes (ACR patient assessment) (50 mg q.d., week 2, LOCF, 12 weeks results): −15.5 | Subject VAS mean changes (ACR patient assessment) (50 mg q.d., week 4, LOCF, 12 weeks results): −20.9 | Subject VAS mean changes (ACR patient assessment) (50 mg q.d., week 8, LOCF, 12 weeks results): −26.4 | Subject VAS mean changes (ACR patient assessment) (50 mg q.d., week 12, LOCF, 12 weeks results): −25.2 | Subject VAS mean changes (ACR patient assessment) (100 mg q.d., week 0, LOCF, 24 weeks results): 0.0 | Subject VAS mean changes (ACR patient assessment) (100 mg q.d., week 2, LOCF, 24 weeks results): −20.9 | Subject VAS mean changes (ACR patient assessment) (100 mg q.d., week 4, LOCF, 24 weeks results): −24.4 | Subject VAS mean changes (ACR patient assessment) (100 mg q.d., week 8, LOCF, 24 weeks results): −29.8 | Subject VAS mean changes (ACR patient assessment) (100 mg q.d., week 12, LOCF, 24 weeks results): −29.1 | Subject VAS mean changes (ACR patient assessment) (100 mg q.d., week 16, LOCF, 24 weeks results): −31.7 | Subject VAS mean changes (ACR patient assessment) (100 mg q.d., week 20, LOCF, 24 weeks results): −35.1 | Subject VAS mean changes (ACR patient assessment) (100 mg q.d., week 24, LOCF, 24 weeks results): −34.4 | Subject VAS mean changes (ACR patient assessment) (100 mg q.d., week 0, LOCF, 12 weeks results): 0.0 | Subject VAS mean changes (ACR patient assessment) (100 mg q.d., week 1, LOCF, 12 weeks results): −13.2 | Subject VAS mean changes (ACR patient assessment) (100 mg q.d., week 2, LOCF, 12 weeks results): −20.8 | Subject VAS mean changes (ACR patient assessment) (100 mg q.d., week 4, LOCF, 12 weeks results): −24.4 | Subject VAS mean changes (ACR patient assessment) (100 mg q.d., week 8, LOCF, 12 weeks results): −29.8 | Subject VAS mean changes (ACR patient assessment) (100 mg q.d., week 12, LOCF, 12 weeks results): −29.1 | Subject VAS mean changes (ACR patient assessment) (200 mg q.d., week 0, LOCF, 24 weeks results): 0.0 | Subject VAS mean changes (ACR patient assessment) (200 mg q.d., week 2, LOCF, 24 weeks results): −21.8 | Subject VAS mean changes (ACR patient assessment) (200 mg q.d., week 4, LOCF, 24 weeks results): −24.9 | Subject VAS mean changes (ACR patient assessment) (200 mg q.d., week 8, LOCF, 24 weeks results): −29.6 | Subject VAS mean changes (ACR patient assessment) (200 mg q.d., week 12, LOCF, 24 weeks results): −34.2 | Subject VAS mean changes (ACR patient assessment) (200 mg q.d., week 16, LOCF, 24 weeks results): −32.9 | Subject VAS mean changes (ACR patient assessment) (200 mg q.d., week 20, LOCF, 24 weeks results): −33.0 | Subject VAS mean changes (ACR patient assessment) (200 mg q.d., week 24, LOCF, 24 weeks results): −34.9 | Subject VAS mean changes (ACR patient assessment) (200 mg q.d., week 0, LOCF, 12 weeks results): 0.0 | Subject VAS mean changes (ACR patient assessment) (200 mg q.d., week 1, LOCF, 12 weeks results): −16.7 | Subject VAS mean changes (ACR patient assessment) (200 mg q.d., week 2, LOCF, 12 weeks results): −21.8 | Subject VAS mean changes (ACR patient assessment) (200 mg q.d., week 4, LOCF, 12 weeks results): −25.2 | Subject VAS mean changes (ACR patient assessment) (200 mg q.d., week 8, LOCF, 12 weeks results): −29.6 | Subject VAS mean changes (ACR patient assessment) (200 mg q.d., week 12, LOCF, 12 weeks results): −34.0 | Subject VAS mean changes (ACR patient assessment) (2 × 25 mg b.i.d., week 0, LOCF, 12 weeks results): 0.0 | Subject VAS mean changes (ACR patient assessment) (2 × 25 mg b.i.d., week 0, LOCF, 24 weeks results): 0.0 | Subject VAS mean changes (ACR patient assessment) (2 × 25 mg b.i.d., week 1, LOCF, 12 weeks results): −8.2 | Subject VAS mean changes (ACR patient assessment) (2 × 25 mg b.i.d., week 2, LOCF, 12 weeks results): −11.7 | Subject VAS mean changes (ACR patient assessment) (2 × 25 mg b.i.d., week 2, LOCF, 24 weeks results): −11.7 | Subject VAS mean changes (ACR patient assessment) (2 × 25 mg b.i.d., week 4, LOCF, 12 weeks results): −16.0 | Subject VAS mean changes (ACR patient assessment) (2 × 25 mg b.i.d., week 4, LOCF, 24 weeks results): −16.0 | Subject VAS mean changes (ACR patient assessment) (2 × 25 mg b.i.d., week 8, LOCF, 12 weeks results): −22.2 | Subject VAS mean changes (ACR patient assessment) (2 × 25 mg b.i.d., week 8, LOCF, 24 weeks results): −22.2 | Subject VAS mean changes (ACR patient assessment) (2 × 25 mg b.i.d., week 12, LOCF, 12 weeks results): −25.2 | Subject VAS mean changes (ACR patient assessment) (2 × 25 mg b.i.d., week 12, LOCF, 24 weeks results): −25.2 | Subject VAS mean changes (ACR patient assessment) (2 × 25 mg b.i.d., week 16, LOCF, 24 weeks results): −25.5 | Subject VAS mean changes (ACR patient assessment) (2 × 25 mg b.i.d., week 20, LOCF, 24 weeks results): −25.6 | Subject VAS mean changes (ACR patient assessment) (2 × 25 mg b.i.d., week 24, LOCF, 24 weeks results): −27.3 | Subject VAS mean changes (ACR patient assessment) (2 × 50 mg b.i.d., week 0, LOCF, 12 weeks results): 0.0 | Subject VAS mean changes (ACR patient assessment) (2 × 50 mg b.i.d., week 1, LOCF, 12 weeks results): −8.8 | Subject VAS mean changes (ACR patient assessment) (2 × 50 mg b.i.d., week 2, LOCF, 12 weeks results): −13.6 | Subject VAS mean changes (ACR patient assessment) (2 × 50 mg b.i.d., week 2, LOCF, 24 weeks results): −13.8 | Subject VAS mean changes (ACR patient assessment) (2 × 50 mg b.i.d., week 4, LOCF, 12 weeks results): −16.9 | Subject VAS mean changes (ACR patient assessment) (2 × 50 mg b.i.d., week 4, LOCF, 24 weeks results): −16.9 | Subject VAS mean changes (ACR patient assessment) (2 × 50 mg b.i.d., week 8, LOCF, 12 weeks results): −21.0 | Subject VAS mean changes (ACR patient assessment) (2 × 50 mg b.i.d., week 8, LOCF, 24 weeks results): −21.0 | Subject VAS mean changes (ACR patient assessment) (2 × 50 mg b.i.d., week 12, LOCF, 12 weeks results): −27.0 | Subject VAS mean changes (ACR patient assessment) (2 × 50 mg b.i.d., week 12, LOCF, 24 weeks results): −27.0 | Subject VAS mean changes (ACR patient assessment) (2 × 50 mg b.i.d., week 16, LOCF, 24 weeks results): −26.3 | Subject VAS mean changes (ACR patient assessment) (2 × 50 mg b.i.d., week 20, LOCF, 24 weeks results): −29.7 | Subject VAS mean changes (ACR patient assessment) (2 × 50 mg b.i.d., week 24, LOCF, 24 weeks results): −28.1 | Subject VAS mean changes (ACR patient assessment) (2 × 100 mg b.i.d., week 0, LOCF, 12 weeks results): 0.0 | Subject VAS mean changes (ACR patient assessment) (2 × 100 mg b.i.d., week 1, LOCF, 12 weeks results): −20.0 | Subject VAS mean changes (ACR patient assessment) (2 × 100 mg b.i.d., week 2, LOCF, 12 weeks results): −25.5 | Subject VAS mean changes (ACR patient assessment) (2 × 100 mg b.i.d., week 2, LOCF, 24 weeks results): −25.5 | Subject VAS mean changes (ACR patient assessment) (2 × 100 mg b.i.d., week 4, LOCF, 12 weeks results): −28.6 | Subject VAS mean changes (ACR patient assessment) (2 × 100 mg b.i.d., week 4, LOCF, 24 weeks results): −28.2 | Subject VAS mean changes (ACR patient assessment) (2 × 100 mg b.i.d., week 8, LOCF, 12 weeks results): −32.8 | Subject VAS mean changes (ACR patient assessment) (2 × 100 mg b.i.d., week 8, LOCF, 24 weeks results): −33.0 | Subject VAS mean changes (ACR patient assessment) (2 × 100 mg b.i.d., week 12, LOCF, 12 weeks results): −35.6 | Subject VAS mean changes (ACR patient assessment) (2 × 100 mg b.i.d., week 12, LOCF, 24 weeks results): −35.6 | Subject VAS mean changes (ACR patient assessment) (2 × 100 mg b.i.d., week 16, LOCF, 24 weeks results): −37.9 | Subject VAS mean changes (ACR patient assessment) (2 × 100 mg b.i.d., week 20, LOCF, 24 weeks results): −39.1 | Subject VAS mean changes (ACR patient assessment) (2 × 100 mg b.i.d., week 24, LOCF, 24 weeks results): −39.1

— patent publication US20180200257A1, “METHODS FOR THE TREATMENT OF INFLAMMATORY DISORDERS” (Galapagos NV, priority 2015, published 2018)
